In ChEMBL document CHEMBL2203009, “Synthesis of isoindole and benzoisoindole derivatives of teicoplanin pseudoaglycon with remarkable antibacterial and antiviral activities” (Bioorg Med Chem Lett, 2012):
pEC50: −log10 of the molar value. ≈ marks a conversion by molar mass, not a printed value.

Key:
[1] = Toxicity in HEL cells assessed as induction of cell morphology changes; assay type: cell-based; conditions: human
Human alphaherpesvirus 1 [2] = test: Antiviral activity against thymidine kinase deficient and acyclovir-resistant HSV1 KOS infected in HEL cells assessed as inhibition of virus-induced cytopathic effect; assay type: functional, organism-based; conditions: Human alphaherpesvirus 1, KOS
[3] = tested on: Vesicular stomatitis virus; test: Antiviral activity against Vesicular stomatitis virus infected in HEL cells assessed as inhibition of virus-induced cytopathic effect; assay type: functional, organism-based
Vaccinia virus = test: Antiviral activity against Vaccinia virus infected in HEL cells assessed as inhibition of virus-induced cytopathic effect; assay type: functional, organism-based; conditions: Orthopoxvirus vaccinia
Human alphaherpesvirus 2 = test: Antiviral activity against HSV2 G infected in HEL cells assessed as inhibition of virus-induced cytopathic effect; assay type: functional, organism-based; conditions: Human alphaherpesvirus 2, strain G
Human alphaherpesvirus 1 [4] = test: Antiviral activity against HSV1 KOS infected in HEL cells assessed as inhibition of virus-induced cytopathic effect; assay type: functional, organism-based; conditions: Human alphaherpesvirus 1, KOS
[5] = Toxicity in MDCK cells assessed as induction of cell morphology changes; assay type: cell-based, Canis lupus familiaris; conditions: dog
Influenza B virus = test: Antiviral activity against Influenza B virus (B/Hong Kong/05/1972) […] infected in MDCK cells assessed as inhibition of virus-induced cytopathic effect; assay type: functional, cell-based; conditions: B/Hong Kong/05/1972, MDCK
H3N2 subtype = test: Antiviral activity against Influenza A virus (A/Hong Kong/7/1987(H3N2)) […] infected in MDCK cells assessed as inhibition of virus-induced cytopathic effect; assay type: functional, organism-based
Influenza A virus = test: Antiviral activity against Influenza A virus (A/Puerto Rico/8/1934(H1N1)) H1N1 infected in MDCK cells assessed as inhibition of virus-induced cytopathic effect; assay type: functional, organism-based
Enterococcus faecalis [6] = test: Antimicrobial activity against Enterococcus faecalis 15376 over-expressing vanA; assay type: functional
Enterococcus faecalis [7] = test: Antimicrobial activity against Enterococcus faecalis ATCC 51299 over-expressing vanB; assay type: functional
[8] = tested on: Staphylococcus epidermidis; test: Antimicrobial activity against Staphylococcus epidermidis over-expressing MecA; assay type: functional
Enterococcus faecalis [9] = test: Antimicrobial activity against Enterococcus faecalis ATCC 29212; assay type: functional
[10] = tested on: Staphylococcus epidermidis; test: Antimicrobial activity against Staphylococcus epidermidis ATCC 35984 biofilms; assay type: functional
Staphylococcus aureus [11] = test: Antimicrobial activity against methicillin-resistant Staphylococcus aureus ATCC 33591; assay type: functional
Bacillus subtilis = test: Antimicrobial activity against Bacillus subtilis ATCC 6633; assay type: functional
Staphylococcus aureus [12] = test: Antimicrobial activity against methicillin-sensitive Staphylococcus aureus ATCC 29213; assay type: functional

Compound | MCC [1] [µM] | pEC50 (Human alphaherpesvirus 1 [2]) | pEC50 [3] | pEC50 (Vaccinia virus) | pEC50 (Human alphaherpesvirus 2) | pEC50 (Human alphaherpesvirus 1 [4]) | MCC [5] [µM] | pEC50 (Influenza B virus) | pEC50 (H3N2 subtype) | pEC50 (Influenza A virus) | MBC (Enterococcus faecalis [6]) [µg/mL] | MIC (Enterococcus faecalis [6]) [µg/mL] | MBC (Enterococcus faecalis [7]) [µg/mL] | MIC (Enterococcus faecalis [7]) [µg/mL] | MBC [8] [µg/mL] | MIC [8] [µg/mL] | MBC (Enterococcus faecalis [9]) [µg/mL] | MIC (Enterococcus faecalis [9]) [µg/mL] | MBC [10] [µg/mL] | MIC [10] [µg/mL] | also measured
CC(=O)N[C@H]1[C@H](O[C@@H]2c3ccc(c(Cl)c3)Oc3cc4cc(c3O)Oc3ccc(cc3Cl)C[C@H]3NC(=O)[C@H](n5cc6ccccc6c5Sc5nc6ccccc6s5)c5ccc(O)c(c5)Oc5cc(O)cc(c5)[C@H](NC3=O)C(=O)N[C@H]4C(=O)N[C@H]3C(=O)N[C@@H]2C(=O)N[C@H](C(=O)O)c2cc(O)cc(O)c2-c2cc3ccc2O)O[C@H](CO)[C@@H](O)[C@@H]1O | ≥ 100 | 4.35 | < 4.00 | 4.33 | 4.35 | 4.35 | 4 | < 4.00 | < 4.00 | < 4.00 | 256 (≈ 154 µM) | 0.0313 (≈ 0.0188 µM) | 256 (≈ 154 µM) | 0.0625 (≈ 0.0375 µM) | 256 (≈ 154 µM) | 4 (≈ 2.4 µM) | 256 (≈ 154 µM) | 2 (≈ 1.2 µM) | 0.5 (≈ 0.3 µM) | 0.0075 (≈ 0.0045 µM) | MBC (Staphylococcus aureus [11]): 0.5 µg/mL (≈ 0.3 µM); MIC (Staphylococcus aureus [11]): 0.0075 µg/mL (≈ 0.0045 µM); MBC (Bacillus subtilis): 2 µg/mL (≈ 1.2 µM); MIC (Bacillus subtilis): 1 µg/mL (≈ 0.6 µM); MBC (Staphylococcus aureus [12]): 0.5 µg/mL (≈ 0.3 µM); MIC (Staphylococcus aureus [12]): 0.0075 µg/mL (≈ 0.0045 µM)
CC(=O)N[C@@H]1[C@@H](O)[C@H](O)[C@@H](CO)O[C@H]1Sc1c2ccccc2cn1[C@H]1C(=O)N[C@@H]2Cc3ccc(c(Cl)c3)Oc3cc4cc(c3O)Oc3ccc(cc3Cl)[C@@H](O[C@@H]3O[C@H](CO)[C@@H](O)[C@H](O)[C@H]3NC(C)=O)[C@@H]3NC(=O)[C@H](NC(=O)[C@@H]4NC(=O)[C@@H](NC2=O)c2cc(O)cc(c2)Oc2cc1ccc2O)c1ccc(O)c(c1)-c1c(O)cc(O)cc1[C@@H](C(=O)O)NC3=O | ≥ 100 | 4.35 | 4.28 | 4.33 | 4.35 | 4.33 | < 0.8 | < 4.00 | < 4.00 | < 4.00 | 256 (≈ 147 µM) | 1 (≈ 0.576 µM) | 256 (≈ 147 µM) | 4 (≈ 2.3 µM) | 64 (≈ 36.8 µM) | 0.0075 (≈ 0.00432 µM) | 256 (≈ 147 µM) | 1 (≈ 0.576 µM) | 0.5 (≈ 0.288 µM) | 0.0313 (≈ 0.018 µM) | MBC (Staphylococcus aureus [11]): 1 µg/mL (≈ 0.576 µM); MIC (Staphylococcus aureus [11]): 1 µg/mL (≈ 0.576 µM); MBC (Bacillus subtilis): 1 µg/mL (≈ 0.576 µM); MIC (Bacillus subtilis): 0.125 µg/mL (≈ 0.0719 µM); MBC (Staphylococcus aureus [12]): 1 µg/mL (≈ 0.576 µM); MIC (Staphylococcus aureus [12]): 0.5 µg/mL (≈ 0.288 µM)
CC(=O)N[C@H]1[C@H](O[C@@H]2c3ccc(c(Cl)c3)Oc3cc4cc(c3O)Oc3ccc(cc3Cl)C[C@H]3NC(=O)[C@H](n5cc6ccccc6c5S[C@@H]5O[C@H](COC(C)=O)[C@@H](OC(C)=O)[C@H](OC(C)=O)[C@H]5OC(C)=O)c5ccc(O)c(c5)Oc5cc(O)cc(c5)[C@H](NC3=O)C(=O)N[C@H]4C(=O)N[C@H]3C(=O)N[C@@H]2C(=O)N[C@H](C(=O)O)c2cc(O)cc(O)c2-c2cc3ccc2O)O[C@H](CO)[C@@H](O)[C@@H]1O | ≥ 100 | 4.40 | 4.32 | 4.35 | 4.96 | 4.40 | 20 | < 4.00 | < 4.00 | < 4.00 | 256 (≈ 137 µM) | 4 (≈ 2.15 µM) | 256 (≈ 137 µM) | 4 (≈ 2.15 µM) | 256 (≈ 137 µM) | 2 (≈ 1.07 µM) | 256 (≈ 137 µM) | 1 (≈ 0.536 µM) | 8 (≈ 4.29 µM) | 2 (≈ 1.07 µM) | MBC (Staphylococcus aureus [11]): 128 µg/mL (≈ 68.6 µM); MIC (Staphylococcus aureus [11]): 0.0313 µg/mL (≈ 0.0168 µM); MBC (Bacillus subtilis): 64 µg/mL (≈ 34.3 µM); MIC (Bacillus subtilis): 0.25 µg/mL (≈ 0.134 µM); MBC (Staphylococcus aureus [12]): 16 µg/mL (≈ 8.58 µM); MIC (Staphylococcus aureus [12]): 0.0625 µg/mL (≈ 0.0335 µM)
CC(=O)N[C@H]1[C@H](O[C@@H]2c3ccc(c(Cl)c3)Oc3cc4cc(c3O)Oc3ccc(cc3Cl)C[C@H]3NC(=O)[C@H](n5cc6ccccc6c5Sc5ncccn5)c5ccc(O)c(c5)Oc5cc(O)cc(c5)[C@H](NC3=O)C(=O)N[C@H]4C(=O)N[C@H]3C(=O)N[C@@H]2C(=O)N[C@H](C(=O)O)c2cc(O)cc(O)c2-c2cc3ccc2O)O[C@H](CO)[C@@H](O)[C@@H]1O | > 100 | 4.30 | < 4.00 | ≤ 4.24 | 4.35 | 4.33 | 20 | < 4.00 | < 4.00 | < 4.00 | 256 (≈ 159 µM) | 0.0625 (≈ 0.0388 µM) | 256 (≈ 159 µM) | 1 (≈ 0.62 µM) | 64 (≈ 39.7 µM) | 4 (≈ 2.48 µM) | 256 (≈ 159 µM) | 0.0313 (≈ 0.0194 µM) | 1 (≈ 0.62 µM) | 0.0165 (≈ 0.0102 µM) | MBC (Staphylococcus aureus [11]): 8 µg/mL (≈ 4.96 µM); MIC (Staphylococcus aureus [11]): 0.0313 µg/mL (≈ 0.0194 µM); MBC (Bacillus subtilis): 0.5 µg/mL (≈ 0.31 µM); MIC (Bacillus subtilis): 0.0625 µg/mL (≈ 0.0388 µM); MBC (Staphylococcus aureus [12]): 0.5 µg/mL (≈ 0.31 µM); MIC (Staphylococcus aureus [12]): 0.0313 µg/mL (≈ 0.0194 µM)
